The source made the active and inactive calls. The calls are words filed in the database; no cut-off is given here.

Usually IC50 stands for the concentration that inhibits the measured activity by half. The term half-life denotes how long it takes for the measured level to halve. As usually defined, the AUC is concentration integrated over time. Usually AUC(0-t) stands for exposure summed from dosing to a finite time, without extrapolation to infinity.

A short description of data set [1]: Permeability of the compound in pH 7.4 solution by PAMPA method. Particulars: read-out: permeability. Format: physicochemical. For orientation: The PAMPA barrier holds no transporters, so it reflects passive diffusion.
For data set [2], the target named is Tyrosine-protein kinase JAK2 (Homo sapiens, UniProt O60674). Kind of data set: Inhibition of JAK2 in human SET2 cells assessed as reduction in STAT5 phosphorylation incubated for 2 hrs by Western blot method. Format: cell-based. On the technique in general: A western blot detects proteins with antibodies after separation by electrophoresis.
Chain of Tyrosine-protein kinase JAK2 (O60674 whole entry): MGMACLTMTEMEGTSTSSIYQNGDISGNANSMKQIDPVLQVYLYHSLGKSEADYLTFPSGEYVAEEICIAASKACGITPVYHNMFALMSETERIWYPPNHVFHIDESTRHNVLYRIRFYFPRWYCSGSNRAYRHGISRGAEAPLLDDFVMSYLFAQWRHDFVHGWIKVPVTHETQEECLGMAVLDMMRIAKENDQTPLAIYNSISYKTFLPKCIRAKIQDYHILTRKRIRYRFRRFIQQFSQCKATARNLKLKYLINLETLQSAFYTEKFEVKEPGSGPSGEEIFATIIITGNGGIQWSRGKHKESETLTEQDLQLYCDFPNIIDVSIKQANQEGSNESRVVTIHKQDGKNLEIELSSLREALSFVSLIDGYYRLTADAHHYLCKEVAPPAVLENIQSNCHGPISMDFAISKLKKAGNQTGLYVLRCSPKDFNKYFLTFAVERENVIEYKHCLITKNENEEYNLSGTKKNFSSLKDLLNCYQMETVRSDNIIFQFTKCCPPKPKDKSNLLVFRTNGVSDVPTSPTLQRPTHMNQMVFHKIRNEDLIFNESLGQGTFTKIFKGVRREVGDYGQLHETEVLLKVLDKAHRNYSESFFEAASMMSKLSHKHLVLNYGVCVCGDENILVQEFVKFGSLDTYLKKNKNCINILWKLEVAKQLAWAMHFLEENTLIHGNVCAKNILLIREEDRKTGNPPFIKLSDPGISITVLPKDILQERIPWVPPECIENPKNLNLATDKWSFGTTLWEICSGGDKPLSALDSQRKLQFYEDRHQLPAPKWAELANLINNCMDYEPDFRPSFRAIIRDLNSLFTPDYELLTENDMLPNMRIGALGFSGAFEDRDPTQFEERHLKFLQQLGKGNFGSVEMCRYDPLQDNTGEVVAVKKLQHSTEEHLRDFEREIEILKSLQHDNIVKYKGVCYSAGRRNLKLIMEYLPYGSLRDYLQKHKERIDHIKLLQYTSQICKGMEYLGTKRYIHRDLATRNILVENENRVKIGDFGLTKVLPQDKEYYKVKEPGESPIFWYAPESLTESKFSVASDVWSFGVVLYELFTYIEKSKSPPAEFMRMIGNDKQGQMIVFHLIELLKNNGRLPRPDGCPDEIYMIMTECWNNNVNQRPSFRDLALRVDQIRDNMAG
In data set [3] the test system is Mus musculus. Nature of the data set: Inhibition of JAK2 V617F mutant in mouse pharamcodynamic model expressing JAK2 V617F mutant assessed as reduction in STAT5 phosphorylation at 2 mg/kg, po measured up to 7 hrs. Format: functional, organism-based.
A short description of data set [4]: Volume of distribution at steady state in rat at 1 mg/kg, iv and 1 mg/kg, po. Particulars: in vivo, read-out: Vdss. It counts as ADME, organism-based.
Data set [5] is described as follows: Half in human liver microsomes. It counts as ADME.
Data set [6] can be described thus: Half in dog liver microsomes. Format: ADME, Canis lupus familiaris.
Another data set concerns the target T1, Cytochrome P450 1A2 (Homo sapiens, UniProt P05177).
T1 sequence (P05177 whole entry): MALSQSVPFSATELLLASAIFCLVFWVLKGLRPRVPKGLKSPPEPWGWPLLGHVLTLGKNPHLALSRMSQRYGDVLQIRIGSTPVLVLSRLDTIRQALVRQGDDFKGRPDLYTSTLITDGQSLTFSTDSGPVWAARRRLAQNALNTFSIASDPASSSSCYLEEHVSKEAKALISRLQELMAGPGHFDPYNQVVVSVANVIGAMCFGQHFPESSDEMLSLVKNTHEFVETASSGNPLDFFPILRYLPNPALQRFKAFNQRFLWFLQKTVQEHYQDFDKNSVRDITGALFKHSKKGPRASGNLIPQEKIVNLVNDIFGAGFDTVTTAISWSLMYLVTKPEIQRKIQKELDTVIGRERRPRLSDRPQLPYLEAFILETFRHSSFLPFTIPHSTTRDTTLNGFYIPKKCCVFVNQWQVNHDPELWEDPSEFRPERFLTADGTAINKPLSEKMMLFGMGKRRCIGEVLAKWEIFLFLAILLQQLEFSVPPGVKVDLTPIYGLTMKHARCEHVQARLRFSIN
Nature of the data set: Inhibition of CYP1A2 in human liver microsomes. Format: ADME. (In general: Liver microsomes are a subcellular fraction often used to study metabolism.)

Data set [7] deals with Mus musculus. Nature of the data set: Inhibition of JAK2 in mouse pharamcodynamic model assessed as reduction in STAT5 phosphorylation at 30 mg/kg, po after 18 hrs. It counts as functional, organism-based.
Another data set addresses Phosphodiesterase 4 (Homo sapiens, UniProt P27815+Q08499+Q07343+Q08493). Kind of data set: Inhibition of PDE4 (unknown origin). It counts as protein assay.
Data set [8] relates to Rattus norvegicus. Kind of data set: Reduction in reticulocytes in rat at 15 mg/kg/day for 2 weeks. It counts as functional, organism-based.
Data set [9] is described as follows: AUC (0 to 24 hrs) in rat assessed as drug tolerability at 15 mg/kg/day for 2 weeks measured on day 14. Format: ADME, organism-based. The arrangement: time < 24 hr, dose 15 mg/kg/day. As to conditions: in vivo.
Data set [10] concerns the target T2, Tyrosine-protein kinase JAK3 (Homo sapiens, UniProt P52333).
T2 sequence (P52333 whole entry): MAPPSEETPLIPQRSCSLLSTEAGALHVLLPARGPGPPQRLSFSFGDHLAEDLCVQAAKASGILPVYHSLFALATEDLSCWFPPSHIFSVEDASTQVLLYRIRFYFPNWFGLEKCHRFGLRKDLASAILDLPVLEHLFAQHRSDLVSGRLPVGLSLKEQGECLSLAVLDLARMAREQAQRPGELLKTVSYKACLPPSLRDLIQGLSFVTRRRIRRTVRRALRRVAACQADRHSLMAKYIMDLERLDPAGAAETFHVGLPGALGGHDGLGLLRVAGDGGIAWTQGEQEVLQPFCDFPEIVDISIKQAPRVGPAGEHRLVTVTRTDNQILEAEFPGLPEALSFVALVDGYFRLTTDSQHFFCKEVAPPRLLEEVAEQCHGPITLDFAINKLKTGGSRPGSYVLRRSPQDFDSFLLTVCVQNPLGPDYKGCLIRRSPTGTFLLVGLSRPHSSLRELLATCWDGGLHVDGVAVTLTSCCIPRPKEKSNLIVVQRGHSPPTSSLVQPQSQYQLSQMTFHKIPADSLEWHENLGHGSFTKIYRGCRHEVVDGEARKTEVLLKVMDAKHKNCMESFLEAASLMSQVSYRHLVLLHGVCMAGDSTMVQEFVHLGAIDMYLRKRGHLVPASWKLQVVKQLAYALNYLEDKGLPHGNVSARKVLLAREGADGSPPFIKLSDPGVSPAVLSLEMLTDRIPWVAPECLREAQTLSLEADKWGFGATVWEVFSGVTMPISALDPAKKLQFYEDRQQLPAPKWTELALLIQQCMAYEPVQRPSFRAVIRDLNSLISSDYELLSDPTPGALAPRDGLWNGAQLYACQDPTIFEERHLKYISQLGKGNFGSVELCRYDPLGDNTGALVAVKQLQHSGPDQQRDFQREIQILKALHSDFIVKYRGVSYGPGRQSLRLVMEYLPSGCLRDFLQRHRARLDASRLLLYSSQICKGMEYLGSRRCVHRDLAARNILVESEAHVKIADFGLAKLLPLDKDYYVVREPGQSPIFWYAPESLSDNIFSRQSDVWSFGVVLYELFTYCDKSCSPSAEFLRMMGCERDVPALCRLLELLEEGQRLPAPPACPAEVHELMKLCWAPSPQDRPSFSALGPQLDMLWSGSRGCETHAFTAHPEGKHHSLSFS
Kind of data set: Inhibition of recombinant JAK3 (unknown origin) using 5-FAM-KKKKEEIYFFFG-OH substrate and ATP incubated for 180 mins by […] method.

A short description of data set [11]: Antiproliferative activity against human SET2 cells incubated for 72 hrs by [3H] thymidine incorporation assay. It counts as functional, cell-based. Particulars: SET-2.
A short description of data set [12]: Inhibition of CYP450 in human liver microsomes. Format: ADME.
Another data set relates to MDA-MB-231. Nature of the data set: Antiproliferative activity against human MDA-MB-231 cells incubated for 72 hrs by [3H] thymidine incorporation assay. It counts as functional, cell-based.
Data set [13] relates to Rattus norvegicus. Nature of the data set: Toxicity in rat assessed as drug tolerability up to 100 mg/kg. It counts as organism-based. Particulars: in vivo.
The nature of data set [14]: Half in rat liver microsomes. It counts as ADME.
Data set [15] in a line: Volume of distribution at steady state in mouse at 2 mg/kg, iv and 10 mg/kg, po. Format: ADME, organism-based. As to conditions: in vivo, read-out: Vdss.
The nature of data set [16]: AUC (0 to 72 hrs) in rat. As to conditions: in vivo. The arrangement: time < 72 hr. It counts as ADME, organism-based.
Data set [17] is described as follows: Volume of distribution at steady state in cynomolgus monkey at 1 mg/kg, iv and 1 mg/kg, po. As to conditions: in vivo, read-out: Vdss. Format: ADME, organism-based, Macaca fascicularis.
The subject of data set [18] is Rattus norvegicus. Kind of data set: Reduction in red blood cell mass in rat at 15 mg/kg/day for 2 weeks. It counts as functional, organism-based.
The nature of data set [19]: AUC (0 to 8 hrs) in mouse pharamcodynamic model at 5 mg/kg, po. It counts as ADME, organism-based. On the set-up: dose 5 mg/kg, time < 8 hr, route oral. As to conditions: in vivo.

As to `CCn1c(C(=O)N(C2CC2)C2CC2)cc2c3c(ncn3C)c(Nc3cc(C)n(C)n3)nc21` [BMS-911543], in data set [1], the Papp was 69.8 ×10⁻⁶ cm/s. Also, the IC50 was 80 nM in data set [2]; 1000 nM on Cytochrome P450 1A2; 5600 nM against Phosphodiesterase 4; 360 nM in [10]; 60 nM in data set [11]; over 40000 nM in [12]. Besides, the inhibition entry in the data set on Mus musculus [3] and in the data set on Mus musculus [7] was “Active” in each case. For the same molecule, the Vd in [4] was 0.3 L/kg; in data set [15], 0.26 L/kg; in data set [17], 1.1 L/kg. The half-life was 0.817 h in data set [5], 1.17 h in data set [6] and 1.15 h in data set [14]. Also, the result with Rattus norvegicus [8] and in the data set with Rattus norvegicus [18] was Active. For the same molecule, the AUC at 24 h in data set [9] was determined as 3200 µM·h. Besides, the result in the data set on MDA-MB-231 was inactive. For the same molecule, in the data set on Rattus norvegicus [13], the Activity entry is listed as “Non-toxic”. Further, the AUC(0-t) at 72 h in [16] came out at 11300 µM·h. In data set [19], this molecule displayed an AUC(0-t) at 8 h of 23 µM·h.

These data come from ChEMBL document CHEMBL3621135 (ACS Med Chem Lett, 2015).
